Laboratory results reported in patent publication US5236901A, “Treatment for irritable bowel syndrome” (Research Corporation Technologies, Inc., priority 1991, dated 1993).
No end group written: not given here.

Columns and labels:
Sprague-Dawley rats [1] = assay: Small and large intestinal transit (geometric center method) and fecal output after exogenous CRF; format: in vivo, rat
Method: (§1) Female Sprague-Dawley rats (150-200 g) are used in all tests described herein. The animals are housed in groups of five in a temperature-controlled room on a 12 hour light-dark cycle (7:00 AM to 7:00 PM) and are allowed water and rat chow ad libitum. Animals are allowed at least one week to recover from shipping before experiments are performed. Gastrointestinal transit, a measure of the propulsive motor activity of the intestine, is evaluated by the geometric center method (Miller et al., 1981, J. Pharmacol. Methods 6:211-217), in which a nonabsorable radioactive marker, ^51 Cr (0.2 ml) as sodium chromate in distilled water, is instilled directly into the proximal duodenum and proximal colon via Silastic cannulas surgically implanted under Equithesin anesthesia 3-5 days earlier. Thirty-five minutes after administration of the chromium, the animals are killed, and the stomach and intestine are removed and counted for gamma radiation. Gastric emptying is evaluated by quantitating the percent radioactivity emptied from the stomach in a 15 minute period. Radiochromium in distilled water (0.2 ml) is administered by oral gavage, and the animals are killed and emptying assessed 15 minutes later. CRF or vehicle is administered intravenously or intracerebroventricularly immediately before ^51 Cr.

plasma ACTH = assay: Plasma ACTH concentrations by radioimmunoassay after CRF; format: in vivo, rat; details: CRF 0.3 ug i.v.; for Plasma ACTH Concentration: mean ± SE
Method: CRF and alpha-helical CRF-(9-41) are purchased from Bachem. Drugs are diluted in distilled water, and NaOH (0.1 N) added to the solution, 1 ul at a time, until the compounds [CRF and alpha-helical CRF-(9-41)]go into solution, at a pH of ~6.8. The solutions are aliquotted into 25- and 50-ug supplies, lyophilized, and stored in a desiccator at 4°-8° C. until needed. Radioimmunoassay kits for determination of plasma levels of ACTH are purchased from ImmunoNuclear.
The following example compares the endocrine response to a low dose of exogenous CRF (0.3 ug i.v.) and to stress-induced release of endogenous CRF by measuring plasma ACTH concentrations by radioimmunoassay in animals that are wrap restrained or treated with CRF.
Blood is drawn from an indwelling jugular cannula, surgically placed under Equithesin anesthesia 3 days earlier. Blood (0.2 ml) is drawn 10 minutes before treatment, as well as 5, 10, 20, 30, 45, and 60 minutes after CRF administration or wrap-restraint stress. Blood is also drawn at the same time points from control animals are briefly ether anesthetized but which are not stressed or drug treated.

Sprague-Dawley rats [2] = assay: Gastric emptying of 51Cr after exogenous CRF; format: in vivo, rat; details: CRF 1.0 to 10.0 ug i.v. or i.c.v.; FIG. 1A
Method: as §1

Sprague-Dawley rats [3] = assay: Intestinal transit after alpha-helical CRF-(9-41) alone or against exogenous CRF; format: in vivo, rat
Method: as §1, with “Gastrointestinal” for “Female Sprague-Dawley rats (150-200 g) are used in all tests described herein. The animals are housed in groups of five in a temperature-controlled room on a 12 hour light-dark cycle (7:00 AM to 7:00 PM) and are allowed water and rat chow ad libitum. Animals are allowed at least one week to recover from shipping before experiments are performed. Gastrointestinal”
Since CRF is likely to play an essential role in initiating both endocrine and autonomic responses to stress, it is probable that CRF mediates the effects of stress on the gut and that blockade of CRF receptors would lessen stress-induced disordered transit. […] The antagonist, alpha-helical CRF-[…] (50 ug, i.v. or i.c.v.), has no effect on small or larger intestinal transit itself when administered into the brain or the bloodstream.

pituitary ACTH release = details: Rivier et al., 1984, cited from earlier work
Sprague-Dawley rats [4] = assay: Wrap-restraint stress-induced intestinal dysfunction, antagonist pretreatment; format: in vivo, rat
Method: as §1, with “Gastrointestinal” for “Female Sprague-Dawley rats (150-200 g) are used in all tests described herein. The animals are housed in groups of five in a temperature-controlled room on a 12 hour light-dark cycle (7:00 AM to 7:00 PM) and are allowed water and rat chow ad libitum. Animals are allowed at least one week to recover from shipping before experiments are performed. Gastrointestinal”
Wrapping-restraint stress, a relatively mild, nonulcerogenic model of restraint is used in all stress studies. Stressed animals are lightly anesthetized with ether, and their trunk, shoulders, and upper forelimbs are wrapped in a confining harness of masking tape. Control animals are lightly ether anesthetized but are not wrapped. Radiochromium is then administered, and the animals are killed 35 minutes later to assess intestinal transit. All stress experiments are performed in the late afternoon (4:00 to 7:00 PM) due to a strong circadian influence on the degree of intestinal dysfunction associated with stress at different times of the day. […]

[5] = antagonist 50 ug i.v. or i.c.v., CRF 3 and 10 ug i.v. or i.c.v., same route

Corticotropin-releasing factor (SQEPPISLDLTFHLLREVLEMTKADQLAQQAHSNRKLLDIA; ends and bridges not checked; UniProt P01142 148-188, looked up) [CRF, peptide comprising 41 amino acid residues, first characterized from ovine hypothalamic extracts; purchased from Bachem]
Response of the gut to CRF compared with restraint stress (Sprague-Dawley rats [1]; CRF 0.3 ug i.c.v., gastric emptying, small and large intestinal transit, fecal pellet output, FIG. 2): identical both in direction and degree | Fecal pellet output (Sprague-Dawley rats [1]; CRF 0.3 to 10.0 ug): increased | Small intestinal transit (Sprague-Dawley rats [1]; CRF 0.3 to 10.0 ug i.v. or i.c.v., FIG. 1B): inhibits | Colonic transit (Sprague-Dawley rats [1]; CRF 0.3 to 10.0 ug i.v. or i.c.v., FIG. 1C): increases | Diarrhea (Sprague-Dawley rats [1]; CRF at higher doses): diarrhea | Lowest effective dose (Sprague-Dawley rats [1]; i.c.v., gastric and intestinal effects): 0.3 µg | Effectiveness of i.v. versus i.c.v. administration (Sprague-Dawley rats [1]; intravenously versus intracerebroventricularly administered CRF): equally effective | Peak levels of ACTH compared with wrap-restraint stress (plasma ACTH): very similar | Time course of ACTH release compared with stress-induced ACTH release (plasma ACTH): more rapid time course | Plasma ACTH Concentration (plasma ACTH; 5 minutes after administration): 619 ± 70 pg/mL | Plasma ACTH Concentration (plasma ACTH; 10 minutes after administration): 494 ± 108 pg/mL | Plasma ACTH Concentration (plasma ACTH; 20 minutes after administration): 265 ± 93 pg/mL | Plasma ACTH Concentration (plasma ACTH; 30 minutes after administration): 174 ± 24 pg/mL | Plasma ACTH Concentration (plasma ACTH; 45 minutes after administration): 146 ± 33 pg/mL | Plasma ACTH Concentration (plasma ACTH; 60 minutes after administration): 141 ± 49 pg/mL | Plasma ACTH Concentration (plasma ACTH; time head +10 (10 minutes before treatment)): 64 ± 4 pg/mL | Gastric emptying (Sprague-Dawley rats [2]): inhibited in a dose-dependent manner

alpha-helical CRF-(9-41)
Large intestinal transit, antagonist alone (Sprague-Dawley rats [3]; 50 ug, i.v. or i.c.v.): has no effect | Small intestinal transit, antagonist alone (Sprague-Dawley rats [3]; 50 ug, i.v. or i.c.v.): has no effect | Effects of exogenous CRF on large intestinal transit (Sprague-Dawley rats [3]; [5]): effectively antagonizes | Effects of exogenous CRF on small intestinal transit (Sprague-Dawley rats [3]; [5]): effectively antagonizes | Agonist activity (pituitary ACTH release): little agonist activity | Effects of CRF and stress on pituitary ACTH release (pituitary ACTH release; both in vivo and in vitro): effectively antagonizes | Stress-induced inhibition of small intestinal transit (Sprague-Dawley rats [4]; 50 ug i.c.v. or i.v. immediately before stress, FIG. 3A): did not affect | Stress-induced increase in large intestinal transit (Sprague-Dawley rats [4]; 50 ug i.c.v. or i.v. immediately before stress, FIG. 3B): completely blocked | Stress-induced increase in fecal pellet output (Sprague-Dawley rats [4]; 50 ug i.c.v. or i.v. immediately before stress, FIG. 3C): significantly diminished | Stress-induced increase in colonic transit, higher dose versus 50 ug (Sprague-Dawley rats [4]; 100 μg i.c.v.): did not result in a further decrease | Stress-induced increase in fecal excretion, higher dose versus 50 ug (Sprague-Dawley rats [4]; 100 μg i.c.v.): did not result in a further decrease | Stress-induced inhibition of small intestinal transit (Sprague-Dawley rats [4]; 100 μg i.c.v.): did not affect
